The text below walks through data of US5747477A, “Azo derivatives of 5-aminosalicylic acid” (priority 1995, dated 1998).

pIC50: −log10 of the molar value. Where two headings read alike, the source gives them in different places.

One series concerns ulcerative colitis. Particulars: cited from earlier work; for active moiety in ulcerative colitis: Azad Khan et al., Lancet 1977.
The subject of series [1] is platelet aggregation induced by PAF. Nature of the series: Test 1-Inhibition of platelet aggregation induced by PAF (C18-PAF, 15 nM). Format: cell-based, male New Zealand rabbits. Particulars: rabbit platelet rich plasma, 15 nM C18-PAF, read-out: IC50 (concentration of drug required to inhibit platelet aggregatory response by 50%). The protocol:
Test 1-Inhibition of platelet aggregation induced by PAF.
Platelet rich plasma (PRP) was prepared by centrifuging the blood at 250xg for 10 min. at 4° C. PRP was diluted with platelet-poor plasma (PPP) obtained by further centrifuging at 3000xg for 10 min. The platelet count was adjusted to 3×10^5 cells/mm^3.

Series [2] relates to PAF-induced hypotension in normotensive rats. Nature of the series: Test 2- Inhibition of PAF-induced hypotension in normotensive rats. Format: in vivo, Male Sprague-Dawley rats. Particulars: intravenous, 3 min. before PAF (0.5 μg/Kg); for ED50: Rattus norvegicus, 0.05 h, read-out: ID50 (dose of test compound required to inhibit hypotension by 50%). The protocol: Test 2- Inhibition of PAF-induced hypotension in normotensive rats.
Male Sprague-Dawley rats, weighing 180-220 g, were anesthetized with sodium pentobarbital (50 mg/Kg i.p.). Blood pressure was recorded from the left carotid artery using a Statham pressure transducer coupled to a Beckman R611 recorder. Right and left femoral veins were catheterized to inject test compounds and PAF (0.5 μg/Kg). Test compounds were administered by intravenous injection (1 mL/Kg, dissolved in saline) 3 min. before PAF.
Blood pressure was monitored and percent inhibition of PAF-induced hypotension with respect to controls was calculated.

The conditions of series [3]: after absorption from the colon; cited from earlier work.

`Nc1ccc(O)c(C(=O)O)c1` [Compound 5-ASA, 5-aminosalicylic acid]: the “active moiety in ulcerative colitis” value with ulcerative colitis is listed as “in ulcerative colitis the active moiety is 5-ASA”.

Turning to `Cc1nc2cnccc2n1CC1CCN(C(=O)CC(C)(C)c2ccc(N)cc2)CC1` [A, 1-[[1-[3-(4-Aminophenyl)-3-methylbutanoyl]-4-piperidyl]methyl]-1H-2-methylimidazo[4,5-c]pyridine], the pIC50 in series [1] (Oryctolagus cuniculus) is 7.72. Further, the ED50 in series [2] amounted to 0.099 mg/kg.

As to `CCOC(=O)[C@H](CC(C)C)N(C(=O)c1ccc(N)cc1)S(=O)(=O)c1ccc(Cn2c(C)nc3cnccc32)cc1` [E, N-(4-Aminobenzoyl)-N-[4-(1H-2-methylimidazo[4,5-c]pyridylmethyl)phenylsulfonyl]-L-leucine ethyl ester], the pIC50 in series [1] (Oryctolagus cuniculus) is 7.52. Moreover, the ED50 in series [2] is 0.15 mg/kg.

`Cc1nc2cnccc2n1CC1CCN(C(=O)CN(c2ccccc2)S(=O)(=O)c2ccc(N)cc2)CC1` [D]: in series [1] (Oryctolagus cuniculus), the pIC50 was 7.12. In series [2], the ED50 was found to be 0.088 mg/kg.

As to `CCOC[C@H](CC(C)C)N(Cc1ccc(N)cc1)S(=O)(=O)c1ccc(Cn2c(C)nc3cnccc32)cc1` [G, N-(4-Aminobenzyl)-N-[(S)-1-isobutyl-2-ethoxyethyl]-4-(1H-2-methylimidazo[4,5-c]pyridylmethyl)phenylsulfonamide], the pIC50 in series [1] (Oryctolagus cuniculus) was 7.80. For the same molecule, the ED50 in series [2] is 0.14 mg/kg.

As for `Cc1nc2cnccc2n1CC1CCN(C(=O)/C=C(/c2ccccc2)c2ccc(N)cc2)CC1` [B, cis-1-[[1-[3-(4-Aminophenyl)-3-phenylpropenoyl]-4-piperidyl]methyl]-1H-2-methylimidazo[4,5-c]pyridine], in series [1], the pIC50 is 7.74. In addition, the “ID50 (dose of test compound required to inhibit hypotension by 50%)” value in series [2] amounted to 0.029 mg/kg.

On to `Nc1ccc(S(=O)(=O)Nc2ccccn2)cc1` [Sulfapyridine, sulfapyridine], for which the metabolism and excretion result in series [3] is “metabolised and excreted in the urine”. For the same molecule, the “active moiety in ulcerative colitis” value in the series with ulcerative colitis was “acts only as a carrier”. Further, the “side effects of sulfasalazine ascribed to the moiety” value in the series on ulcerative colitis (Das et al., New Engl. J. Med. 1973) is recorded as “Most of the side effects of sulfasalazine have been ascribed to the sulfapyridine moiety”.

`Cc1nc2cnccc2n1CC1CCN(C(=O)/C=C(\c2ccccc2)c2ccc(N)cc2)CC1` [C, trans-1-[[1-[3-(4-Aminophenyl)-3-phenylpropenoyl]-4-piperidyl]methyl]-1H-2-methylimidazo[4,5-c]pyridine]: the pIC50 in series [1] is 8.30. Besides, the “ID50 (dose of test compound required to inhibit hypotension by 50%)” value in series [2] was 0.01 to 0.025 mg/kg.

Turning to `CCOC(=O)[C@H](CC(C)C)N(Cc1ccc(N)cc1)S(=O)(=O)c1ccc(Cn2c(C)nc3cnccc32)cc1` [F, N-(4-Aminobenzyl)-N-[4-(1H-2-methylimidazo[4,5-c]pyridylmethyl)-phenylsulfonyl]-L-leucine ethyl ester], the pIC50 in series [1] (Oryctolagus cuniculus) is 7.92. In series [2], the ED50 turned out to be 0.033 mg/kg.
